# Columns and labels:
# [1] = tested on: BRCA2; test: qRT-PCR mRNA level; type: cell-based, human; settings: CWR22Pc cells, 6 µM vs. vehicle, 3 days
# Text: (§1) Specifically, significant changes were evident in 21 of 203 genes associated with DNA replication and nuclear division (Figure 3B). Specifically, genes associated with minichromosome maintenance family (MCM2, MCM3, MCM4, MCM5, MCM10) were regulated by both IST5 and shStat5 in PC cells, and were associated with DNA replication and DNA replication initiation process as indicated by the functional module analysis (Figure 3). In addition, suppression of the top genes regulated by IST5 and genetic knockdown of Stat5 was confirmed by quantitative real-time polymerase chain reaction (qRT-PCR) in CWR22Pc cells after 3 days of Stat5 inhibition (Figure 3C). It is important to note that the gene expression changes induced by both shStat5 and IST5 in PC cells described here represent later changes in gene expression networks and the early genes (at 24 h) regulated by shStat5/IST5 might be different.
# (§2) Figure 3 Pathway enrichment analysis of genes regulated similarly by IST vs. genetic knockdown of Stat5 in prostate cancer cells. […] (C), mRNA levels of MCM10 and BRCA2 were reduced, determined by quantitative real-time polymerase chain reaction (qRT-PCR), in CWR22Pc cells upon genetic knockdown of Stat5 by lentiviral expression of shStat5 vs. shCtrl or by treatment with IST5 (6 µM) vs. vehicle for 3 days. […]
# [2] = tested on: MCM10; test: qRT-PCR mRNA level; type: cell-based, human; settings: CWR22Pc cells, 6 µM vs. vehicle, 3 days
# Text: as §1, §2
# [3] = tested on: panel of 54 kinases; test: Cell-free kinase panels, overall; type: biochemical; settings: 1 µM
# Text: Given that IST5 suppresses phosphorylation of Stat5 in PC cells, it is possible that IST5 inhibits the kinase(s) responsible for Stat5 phosphorylation and activation in PC cells. To evaluate if IST5 affects kinase activity in cancer cells, we tested kinase inhibitory activity of IST5 in two custom-tailored panels including 54 relevant kinases (Table 1), including Jak1, Jak2, Jak3, Tyk2, Abl1, Abl2, Lck, Fyn, Src and TrkB/C. In addition, we further tested if IST5 inhibits tyrosine phosphorylation of Jak1, Jak2, Jak3 or Tyk2 using a cell-based assay (Figure 5D), where phosphorylation of the kinase is indicative of enzymatic kinase activity. DU145 and CWR22Rv1 cells were treated with IST5 (6 µM) for 6 h followed by immunoprecipitation of Jak1, Jak2, Jak3 and Tyk2 and immunoblotting with anti-phospho-tyrosine antibody. […]
# For Jak1, Jak2, Jak3 and Tyk2, a radiometric filtration binding assay was conducted by Reaction Biologicals (Malvern, PA, USA) (Table 1). […] For evaluation of the activity of the other kinases, the Kinase Seeker Technology was utilized (Luceome Biotechnologies, Tucson, AZ, USA), which is a luminescence-based cell-free assay. […] The competitive displacement of the probe by an inhibitor is measured by a change in luminescence signal. […]
# [4] = tested on: enzalutamide-resistant PC; parameters: method as in PMID 31548294; settings: cited from earlier work
compound,measurement,setting,value
O=P(O)(O)OCC1OC(n2cnc3c(NCc4ccccc4)ncnc32)C(O)C1O (stereo not shown) [IST5],mRNA level of BRCA2,[1],reduced
same,mRNA level of MCM10,[2],reduced
same,inhibitory activity against the kinases of Table 1,[3],no significant inhibitory activity
same,enzalutamide-resistant PC growth in mice,[4],blocks enzalutamide-resistant PC growth
